# Assay results published in patent publication US6673902B2, “Cyclin D binding factor, and uses thereof” (St. Jude Children's Research Hospital, priority 1996, dated 2004).
# Legend:
# recombinant DMP1 [1] = molecular target: T1, recombinant DMP1 (Mus musculus, UniProt Q8CE22); assay: EMSA competition, recombinant DMP1 and 281 base pair ARF promoter fragment; format: binding; details: 200-fold excess of unlabelled oligonucleotide
# T1 construct: made in house; host or cells: Sf9 insect cells, pAcYM1 baculovirus vector; used as crude lysate (~4 ng DMP1 per reaction)
# T1 sequence (Q8CE22 1-761): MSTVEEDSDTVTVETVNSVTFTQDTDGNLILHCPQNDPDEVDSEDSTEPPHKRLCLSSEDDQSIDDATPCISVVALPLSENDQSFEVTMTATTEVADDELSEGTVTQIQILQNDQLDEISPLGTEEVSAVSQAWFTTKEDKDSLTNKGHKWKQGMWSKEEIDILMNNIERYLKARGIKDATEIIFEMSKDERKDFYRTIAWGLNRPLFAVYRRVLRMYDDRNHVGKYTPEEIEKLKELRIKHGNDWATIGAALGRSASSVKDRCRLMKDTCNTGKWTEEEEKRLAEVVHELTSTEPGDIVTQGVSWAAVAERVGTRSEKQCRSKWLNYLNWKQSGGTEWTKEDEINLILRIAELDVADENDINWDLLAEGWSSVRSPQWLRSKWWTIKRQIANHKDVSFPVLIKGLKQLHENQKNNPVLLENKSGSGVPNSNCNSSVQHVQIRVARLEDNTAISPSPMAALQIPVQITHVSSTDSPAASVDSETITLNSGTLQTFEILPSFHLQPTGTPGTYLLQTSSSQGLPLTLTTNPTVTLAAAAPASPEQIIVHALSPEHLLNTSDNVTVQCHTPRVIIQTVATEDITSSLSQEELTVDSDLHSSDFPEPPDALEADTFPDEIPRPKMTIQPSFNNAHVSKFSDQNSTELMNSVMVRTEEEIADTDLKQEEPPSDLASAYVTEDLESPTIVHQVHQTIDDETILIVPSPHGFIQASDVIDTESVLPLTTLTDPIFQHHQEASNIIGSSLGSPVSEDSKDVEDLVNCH
# Description: Electrophoretic mobility shift assay (EMSA). Recombinant DMP1 protein was prepared in Sf9 cells [Hirai and Sherr, Mol. Cell. Biol. 16:6457-6467 (1996)]. Purified bacterial proteins representing the Ets1 DNA binding domain or full-length Ets1 [Inoue, et al., J. Biol. Chem. 273:29188-29194 (1998)] were used. EMSAs were performed [Inoue and Sherr, Mol. Cell. Biol. 18:1590-1600 (1998)] using either a 281-bp genomic fragment (−225 to +56) or double-stranded oligonucleotides containing the DMP1/Ets site obtained by annealing oligonucleotide 5′-[…]-3′ (sense strand SEQ ID NO:41); DMP1/Ets consensus sequence underlined) with a complementary antisense strand. For competition experiments, a 200-fold excess of unlabelled oligonucleotides was added to reaction mixtures before the probe. To verify the identity of the proteins in shifted complexes, reaction mixtures were incubated with control nonimmune rabbit serum (NRS), serum AF [Hirai and Sherr, Mol. Cell. Biol. 16:6457-6467 (1996)] and M-10 (both to DMP1 carboxylterminal epitopes), S-19 (DMP1 N-terminus), or C-20 (Ets1 C-terminus) before electrophoresis. M-10, S-19, and C-20 were from Santa Cruz Biotechnology.
# The nucleotide sequence of the proximal promoter region of the murine ARF gene relative to the transcription initiation site as defined by S1 mapping analysis was determined (FIG. 13). […]
# GST-Ets2 fusion protein = molecular target: T2, GST-Ets2 fusion protein (Homo sapiens, UniProt P15036); assay: EMSA competition with bacterial GST-Ets2 fusion protein; format: binding; details: excess unlabeled oligonucleotide
# T2 construct: made in house; host or cells: bacteria
# T2 sequence (P15036 363-443 limits assumed): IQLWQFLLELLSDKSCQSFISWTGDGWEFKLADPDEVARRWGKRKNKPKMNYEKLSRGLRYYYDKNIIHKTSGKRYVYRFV
# Description: (§1) Double-stranded oligonucleotides containing potential DMP1 binding sites (BS1 and BS2) and mutated versions (M1-M4) (FIG. 5B) are end-labeled with ^32P using the Klenow fragment of DNA polymerase and α-^32P-dATP (6000 Ci/mmol; Dupont NEN) (8). Nuclear extracts from mouse NIH-3T3 or CTLL cells are prepared with buffer containing 0.4 M NaCl (2). Mammalian cell extracts (15 μg protein) or Sf9 lysates (corresponding to 5×10^2 infected cells) containing ˜4 ng recombinant DMP1 are mixed with 3 ng of ^32P-labeled probe (1×10^5 cpm) in 15 ul Binding buffer containing 2.5 μg of poly(dI-dC) and 2.5 μg BSA and incubated at 4° C. for 30 minutes. For competition experiments, the indicated amounts of unlabeled oligonucleotides are added to the reactions before addition of the labeled probe. In some experiments, a bacterially produced GST-Ets2 fusion protein containing the complete Ets2 DNA-binding domain (10) is used in place of Sf9 extracts containing recombinant DMP1. Protein-DNA complexes are separated on nondenaturing 4% polyacrylamide gels as described (8). Where indicated, antiserum to DMP1 together with 2.5 μg salmon testis DNA (Sigma; used to reduce nonspecific DNA binding activity caused by serum addition) is preincubated with extracts for 30 minutes at 4° C. prior to initiation of binding reactions. Immune complexes are either removed by adsorption to protein A-Sepharose beads (immunodepletion experiments) or are allowed to remain (“supershift” experiments).
# (§2) Using electrophoretic mobility shift assays (EMSA) performed after mixing a titrated excess (3 ng) of ^32P-end labeled BS1 probe with Sf9 lysates producing DMP1 (˜4 ng recombinant protein per reaction), a BS1-containing protein complex is detected that was competed with an excess of unlabeled BS1 oligonucleotide but not with mutant oligonucleotides M1 and M2 (FIG. 6A). […] More subtle mutations within this region may be tolerated, because high concentrations of M4 competed for BS1 binding to both Ets2 and DMP1 in subsequent studies (FIG. 5B and see below). DMP1 also binds a BS2 probe, and the binding is competed by excess BS2 or BS1 (FIG. 6B). In agreement with the site selection frequencies (FIG. 5A), binding of ^32P-BS1 under equivalent conditions was competed more efficiently by excess unlabeled BS1 than by BS2 (FIG. 6B). […] In agreement, Ets2 binding to BS1 could be competed with excess unlabeled BS1 and M3, but not by BS2 (FIG. 6C). Therefore, although both DMP1 and Ets2 can each bind to BS1 sequences, their exclusive interactions with BS2 and M3, respectively, help to distinguish DMP1 and Ets binding activities (summarized in FIG. 5B).
# recombinant DMP1 [2] = molecular target: T1, recombinant DMP1; assay: EMSA competition with Sf9 lysates producing recombinant DMP1; format: binding; details: excess unlabeled oligonucleotide
# Description: as §1, §2
# [3] = system: DMP1-responsive promoter (pGL2BS2); assay: Transactivation of luciferase reporter plasmid under control of a DMP1-responsive promoter in NIH-3T3 fibroblasts; format: cell-based, mouse; details: expression vector 3 μg/10 ml, pGL2BS2 8 μg/10 ml; vector without insert set to 1.0
# Source text: Coexpression of a D-type cyclin with DMP1 overrides the ability of DMP1 to transactivate a luciferase gene under the control of an artificial DMP1-responsive promoter (Table 4), as well as the ability of DMP1 to inhibit cell growth.
# NIH-3T3 fibroblasts = assay: BrdU incorporation in transfected NIH-3T3 fibroblasts; format: cell-based, mouse
# Description: BrdU is added to NIH-3T3 cells after the experimental treatment and the cells were incubated for twenty-two hours in DMEM plus 10% fetal calf serum (FCS). The cells were then stained for DMP1 expression and/or BrdU incorporation. The nucleic acids encoding the wildtype DMP1 and the deletion and point mutants had been constructed so as to express the corresponding proteins with Flag-tags. To stain for DMP1 expression, mouse monoclonal anti-Flag antibodies (12 μg/ml) [Kodak] were incubated with the cells in TBS-Ca^+ without FCS for one hour at room temperature. After washing the cells, horse anti-mouse biotinylated antibodies at a 1:500 dilution were added to the cells in TBS plus 5% FCS and incubated for 30 minutes at room temperature. After washing the cells, strefptavidin linked to Texas red [Amersham] was then added at a 1:500 dilution for 30 minutes at room temperature. To stain for BrdU incorporation, 1.5N HCl was added to the cells for ten minutes at room temperature to denature the DNA. After washing the cells, sheep anti-BrdU antibodies [Fitzgerald] at a 1:12 dilution were then added for one hour at room temperature. After washing the cells, rabbit FITC-conjugated anti-sheep antibodies [Vector] at 1:100 dilution was then incubated for 30 minutes at room temperature.
# NIH-3T3 cells were placed on cover slides and transfected with the expression vectors (pFLEX-DMP1 or the corresponding vector containing the deletion or point mutants of mouse DMP1 plus or minus cyclin D or E) for fourteen hours. The cells were then washed twice and DMEM plus 10% FCS was added and the cells incubated for eight hours. Half of the cells were starved by washing twice with 0.1% FCS, and then incubated for twenty-four hours in 0.1% FCS in DMEM. The remaining cells were not starved but were incubated for twenty-four hours in DMEM plus 10% FCS without washing. BrdU was added to both groups of cells and the cells were incubated for twenty-two hours in DMEM plus 10% FCS.
# The cells were then restimulated to enter the cell cycle synchronously with DMEM plus 10% FCS. At the same time, 5′-Bromo-2′ Deoxyuridine (BrdU) was added to the medium. The cells were fixed 22 hours later in methanol acetone (1:1) and stained for BrdU incorporation and DMP1 expression as described in the Materials and Methods.
# 32P-BS2 Probe = assay: EMSA with 32P-BS2 probe on transfection lysates of NIH-3T3 fibroblasts; format: binding; details: 32P labeled BS2 probe
# Description: as §1
# A series of deletion mutants and a point mutant of DMP1, K319E, (in which the lysine at position 319 of SEQ ID NO:1 is replaced by a glutamic acid) were prepared and used to determine the DNA-binding domain of DMP1 by electrophoretic mobility shift assay (EMSA) using a ^32P labeled BS2 probe. The DNA-binding domain of DMP1 was mapped to a central region containing the three MYB repeats plus adjacent flanking sequences: a BstEII to NcoI fragment encoding amino acids 87-458 of SEQ ID NO:1 (Table 1). This region alone was necessary and sufficient for DNA binding.
# [4] = system: 281 bp ARF promoter fragment; assay: Transactivation of ARF promoter-luciferase reporter in NIH-3T3 cells; format: cell-based, mouse; details: NIH-3T3, 281 bp ARF promoter fragment-luciferase
# Description: Transactivation assays. NIH-3T3 cells were transfected with 4 μg of pGL2-ARFpro BamHI or its DMP1 binding site mutant, with or without increasing amount of pFLEX-DMP1, pEVRFO-Ets1, pCMV-Ets2, pRcRSV-Elfl, pdEB-Fli1, p(IEB-EWS-Fli1 or pCMV-E2F-1 (89-437), and 4 μg β-actin SEAP control vectors [Inoue and Sherr, Mol. Cell. Biol. 18: 1590-1600 (1998); Inoue et al., J. Biol. Chem. 273:29188-29194 (1998); Davis and Roussel, Gene 171:265-269 (1996); Baily et al., Mol. Cell. Biol. 14:3230-3241 (1994)]. Transfections and normalization of luciferase levels with internal control SEAP levels were performed as described [Inoue and Sherr, Mol. Cell. Biol. 18:1590-1600 (1998)].
# Similarly, DMP1 deletion mutants defective in transactivation [Inoue and Sherr, Mol. Cell. […] Mutation of the DMP1 binding site within the ARF promoter [changing CCCGGATGC, (SEQ ID NO:33) to CCCGTCGAC, (SEQ ID NO:42)] also completely abolished transactivation by wild-type DMP1 (FIG. 14C, mutant reporter). Therefore, sequences within the −189 to −181 ARF promoter segment were the only ones responsible for DMP1-mediated transactivation. Although Ets1 could bind to a 23 base pair oligonucleotide containing the DMP1 consensus site (FIG. 14B), several Ets proteins were unable to induce significant reporter gene expression from the more complex 281 base pair ARF promoter (FIG. 14C). […]
Luciferase Activity [3],Substance,competition for DMP1 binding to the 281 base pair ARF promoter fragment (recombinant DMP1 [1]),competition for BS1 binding to Ets2 (GST-Ets2 fusion protein),competition for 32P-BS1 probe binding to DMP1 (recombinant DMP1 [2]),competition for BS2 probe binding to DMP1 (recombinant DMP1 [2]),"% Cells BrdU Positive (NIH-3T3 fibroblasts; Table 2, expression vector 3 μg/10 ml) [%]","% Cells BrdU Positive in 10% FCS (NIH-3T3 fibroblasts; nonstarved cells, additive None, labeled 22 hours) [%]","% Cells BrdU Positive in 0.1% FCS (NIH-3T3 fibroblasts; starved cells, additive None, labeled 22 hours) [%]",affinity for the DNA probe relative to wildtype (32P-BS2 Probe),ARF promoter reporter gene expression [4]
–,"oligonucleotide BS2: probe/competitor BS2, SEQ ID NO:11, DMP1 binding site CCCGTATGT with GTA core (DNA AATTGACCCGTATGTAGGTACGC; chemistry not given here)",completely inhibited,not,competed,competed,–,–,–,–,–
1.1,"M11: DMP1 point mutant, lysine at position 319 of SEQ ID NO:1 replaced by glutamic acid",–,–,–,–,48,54,47,about 2%,had no activity
